Measured values: US20250011404A1, “TARGETING APOE ENHANCES T-CELL KILLING IN CANCER IMMUNOTHERAPY” (Children's National Medical Center, priority 2021, published 2025)
“Also recorded” adds a separate entry of the source.

Test system: Mouse bone-marrow derived dendritic cells (DC)
Assay: Cytokine production of TLR7/8 activated bone-marrow derived dendritic cells, multiplex ELISA
Type: cell-based
Settings: 48 hr
Procedure: Mouse bone-marrow derived dendritic cells (DC) were cultured in the presence of the indicated concentrations of apoE agonist COG133 for 48 hr. COG133 increased the production of anti-inflammatory IL-10, GM-CSF, and chemokines MCP-1 and MCP-3 by TLR7/8 activated DC while decreasing the levels of proinflammatory cytokines IL-1α, IL-1β and IL-23 in a dose-dependent manner as determined by multiplex ELISA.
Cell culture supernatant was collected after centrifuge at 1,200 rpm for 10 min at 4° C. The concentrations of the following immune molecules were determined using the mouse Cytokine & Chemokine 36-plex ProcartaPlex Panel, a magnetic bead-based multiplex immunoassay (Thermo Scientific) following our previous protocol(19). Briefly, cell culture supernatant samples were mixed with antibody-linked polystyrene beads on a 96-well plate and incubated at room temperature (RT) for 2 h on an orbital shaker at 500 rpm. After washing, plates were incubated with biotinylated detection antibody for 30 min at RT. Plates were then washed twice and then labeled beads were resuspended in streptavidin-PE. Each sample was measured in duplicate along with standards (8-point dilutions) and the buffer control. Plates were read using a Luminex Bio-plex 200 system (Bio-Rad Corp.) for quantitative analysis.

COG133: a fragment of apoE peptide, which competes with the apoE holoprotein for binding the LDL receptors and acts as an apoE mimetic
IL-1α, IL-1β and IL-23 levels of activated DC (dose dependent): suppressed; also recorded: decreasing
secretion of anti-inflammatory cytokine IL-10 from activated DC (dose dependent): induced secretion
production of IL-10, GM-CSF, MCP-1 and MCP-3 by TLR7/8 activated DC (indicated concentrations, multiplex ELISA (FIG. 16)): increased
